In patent publication US11919902B2, “Aryl-bipyridine amine derivatives as phosphatidylinositol phosphate kinase inhibitors” (HiberCell, Inc., priority 2017, dated 2024):

Key:
[1] = target: T1, PIP4K2A (full length protein, SignalChem) (Homo sapiens, UniProt P48426); assay: Kinase Assay PIP4K2 A (Sprint); ADP-Glo biochemical assay; settings: Table 2; compounds listed under IC50 range headings
T1 construct: 4 nM PIP4K2A (full length protein, SignalChem); purchased SignalChem
T1 sequence (P48426 1-406): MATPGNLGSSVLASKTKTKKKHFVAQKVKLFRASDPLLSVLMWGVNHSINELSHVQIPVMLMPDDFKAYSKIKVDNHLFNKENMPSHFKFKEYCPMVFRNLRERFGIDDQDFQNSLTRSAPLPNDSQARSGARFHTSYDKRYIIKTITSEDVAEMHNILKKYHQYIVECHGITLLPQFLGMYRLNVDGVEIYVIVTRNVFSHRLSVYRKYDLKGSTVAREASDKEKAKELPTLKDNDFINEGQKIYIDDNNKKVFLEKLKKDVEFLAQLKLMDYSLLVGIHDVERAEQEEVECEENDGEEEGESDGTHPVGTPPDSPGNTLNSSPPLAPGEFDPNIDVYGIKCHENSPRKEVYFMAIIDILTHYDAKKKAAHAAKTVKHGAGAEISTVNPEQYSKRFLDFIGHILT
How it was run: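 Compounds (10-point, 3-fold dilutions) were pre-incubated 15 min at RT with an enzyme/substrate mix of 4 nM full-length PIP4K2A and 100 μM PI(5)P diC8 in 20 mM MOPS pH 7.2, 25 mM MgCl2, 0.005% Tween 20. A 60 μM ATP solution was added, reaction 1 h RT; ADP read by ADP-Glo luminescence, IC50 fitted from % inhibition vs DMSO.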

GST tagged PIP4KtypeIIB = target: T2, GST tagged PIP4KtypeIIB (Homo sapiens, UniProt P78356); assay: Trans-FI P kinase assay PIP4K2B (PIP4KtypeIIB inhibition assay); format: biochemical; settings: Table 4; compounds listed under IC50 range headings; 100 uM GTP, 5 nM PIP4KIIB; read-out: Trans-FI P kinase assays: PIP4K2B IC50
T2 construct: made in house; host or cells: E. coli
T2 sequence (P78356 1-416): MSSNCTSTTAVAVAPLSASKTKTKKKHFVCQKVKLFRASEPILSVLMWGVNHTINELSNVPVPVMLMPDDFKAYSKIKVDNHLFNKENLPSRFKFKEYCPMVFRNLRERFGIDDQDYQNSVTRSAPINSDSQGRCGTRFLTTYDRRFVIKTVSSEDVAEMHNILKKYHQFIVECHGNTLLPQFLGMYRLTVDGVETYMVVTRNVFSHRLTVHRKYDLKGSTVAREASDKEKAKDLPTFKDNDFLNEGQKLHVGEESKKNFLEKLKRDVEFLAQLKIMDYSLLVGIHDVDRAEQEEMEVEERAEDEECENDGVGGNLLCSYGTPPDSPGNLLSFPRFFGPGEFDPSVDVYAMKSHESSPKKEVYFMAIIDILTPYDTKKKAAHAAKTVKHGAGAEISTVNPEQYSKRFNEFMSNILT
How it was run: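 Purified GST-PIP4KIIB (5 nM final), 1 h preincubation with compound at 27 C, then 2 h reaction with 100 uM GTP and 80 uM PI5P plus DOPE carrier lipid in pH 7.3 HEPES/MgCl2/Triton buffer with 5% DMSO. GDP read by Transcreener FI fluorescence against a calibration curve; IC50 from % no-inhibitor activity vs log concentration.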

IC50 [1] | IC50 (GST tagged PIP4KtypeIIB) | SMILES
100 to 1000 nM | 1 to 10 nM | CC(C)n1cnnc1-c1ccc(-c2cc(-c3ccnc4c3cc3n4CCN(CC4CC4)C3=O)cnc2N)cc1 [Example 374, 4-(6-amino-5-(4-(4-isopropyl-4H-1,2,4-triazol-3-yl)phenyl)pyridin-3-yl)-7-(cyclopropylmethyl)-8,9-dihydropyrido[3′,2′:4,5]pyrrolo[1,2-a]pyrazin-6(7H)-one]
100 to 1000 nM | 10 to 100 nM | CC(C)c1conc1-c1ccc(-c2cncc(-c3ccnc4c3cc3n4CCN(C)C3=O)c2)cc1 [Example 375, 4-(5-(4-(4-isopropylisoxazol-3-yl)phenyl)pyridin-3-yl)-7-methyl-8,9-dihydropyrido[3′,2′:4,5]pyrrolo[1,2-a]pyrazin-6(7H)-one]
1000 to 2500 nM | 10 to 100 nM | CN1CCn2c(cc3c(-c4cncc(-c5ccc(-c6nncn6CC6CC6)cc5)c4)ccnc32)C1=O [Example 376, 4-(5-(4-(4-(cyclopropylmethyl)-4H-1,2,4-triazol-3-yl)phenyl)pyridin-3-yl)-7-methyl-8,9-dihydropyrido[3′,2′:4,5]pyrrolo[1,2-a]pyrazin-6(7H)-one]
5 to 100 nM | 1 to 10 nM | CN1CCn2c(cc3c(-c4cncc(-c5ccc(-c6nncn6C(C)(C)C)cc5)c4)ccnc32)C1=O [Example 377, 4-(5-(4-(4-(tert-butyl)-4H-1,2,4-triazol-3-yl)phenyl)pyridin-3-yl)-7-methyl-8,9-dihydropyrido[3′,2′:4,5]pyrrolo[1,2-a]pyrazin-6(7H)-one]
100 to 1000 nM | 10 to 100 nM | CC(C)n1cnnc1-c1ccc(-c2cncc(-c3ccnc4[nH]c(C(=O)NCc5cccnc5)cc34)c2)cc1 [Example 378, 4-(5-(4-(4-isopropyl-4H-1,2,4-triazol-3-yl)phenyl)pyridin-3-yl)-N-(pyridin-3-ylmethyl)-1H-pyrrolo[2,3-b]pyridine-2-carboxamide]
5 to 100 nM | 10 to 100 nM | O=C(NCc1cccc2c1B(O)OC2)c1cc2c(-c3cncc(-c4ccc(N5CCCC5=O)cc4)c3)ccnc2[nH]1 [Example 379, N-((1-hydroxy-1,3-dihydrobenzo[c][1,2]oxaborol-7-yl)methyl)-4-(5-(4-(2-oxopyrrolidin-1-yl)phenyl)pyridin-3-yl)-1H-pyrrolo[2,3-b]pyridine-2-carboxamide]
1000 to 2500 nM | 2500 to 5000 nM | CC(C)c1cncc(-c2ccc(-c3cncc(-c4ccnc5c4cc4n5CCN(C)C4=O)c3)cc2)c1 [Example 380, 4-(5-(4-(5-isopropylpyridin-3-yl)phenyl)pyridin-3-yl)-7-methyl-8,9-dihydropyrido[3′,2′:4,5]pyrrolo[1,2-a]pyrazin-6(7H)-one]
100 to 1000 nM | 100 to 1000 nM | CN1CCn2c(cc3c(-c4cncc(-c5ccc(C(=O)N6CC(C)(C)C6)cc5)c4)ccnc32)C1=O [Example 381, 4-(5-(4-(3,3-dimethylazetidine-1-carbonyl)phenyl)pyridin-3-yl)-7-methyl-8,9-dihydropyrido[3′,2′:4,5]pyrrolo[1,2-a]pyrazin-6(7H)-one]
100 to 1000 nM | 100 to 1000 nM | CN1CCn2c(cc3c(-c4cncc(-c5ccc(C(=O)N6C7CCC6CC7)cc5)c4)ccnc32)C1=O [Example 382, 4-(5-(4-(7-azabicyclo[2.2.1]heptane-7-carbonyl)phenyl)pyridin-3-yl)-7-methyl-8,9-dihydropyrido[3′,2′:4,5]pyrrolo[1,2-a]pyrazin-6(7H)-one]
100 to 1000 nM | 10 to 100 nM | CC(C)Cn1cnnc1-c1ccc(-c2cncc(-c3ccnc4c3cc3n4CCN(C)C3=O)c2)cc1 [Example 383, 4-(5-(4-(4-isobutyl-4H-1,2,4-triazol-3-yl)phenyl)pyridin-3-yl)-7-methyl-8,9-dihydropyrido[3′,2′:4,5]pyrrolo[1,2-a]pyrazin-6(7H)-one]
100 to 1000 nM | 1 to 10 nM | CC(C)n1cnnc1-c1ccc(-c2cncc(-c3ccnc4c3cc3n4CCN(Cc4ccncc4)C3=O)c2)cc1 [Example 385, 4-(5-(4-(4-isopropyl-4H-1,2,4-triazol-3-yl)phenyl)pyridin-3-yl)-7-(pyridin-4-ylmethyl)-8,9-dihydropyrido[3′,2′:4,5]pyrrolo[1,2-a]pyrazin-6(7H)-one]
100 to 1000 nM | 100 to 1000 nM | CN1CCn2c(cc3c(-c4cncc(-c5ccc(N6CCCS6(=O)=O)cc5)c4)ccnc32)C1=O [Example 386, 4-(5-(4-(1,1-dioxidoisothiazolidin-2-yl)phenyl)pyridin-3-yl)-7-methyl-8,9-dihydropyrido[3′,2′:4,5]pyrrolo[1,2-a]pyrazin-6(7H)-one]
100 to 1000 nM | 1 to 10 nM | CC(C)n1nnnc1-c1ccc(-c2cncc(-c3ccnc4c3cc3n4CCN(C)C3=O)c2)cc1 [Example 387, 4-(5-(4-(1-isopropyl-1H-tetrazol-5-yl)phenyl)pyridin-3-yl)-7-methyl-8,9-dihydropyrido[3′,2′:4,5]pyrrolo[1,2-a]pyrazin-6(7H)-one]
100 to 1000 nM | 100 to 1000 nM | CC(C)n1cnnc1-c1ccc(-c2cncc(-c3ccnc4[nH]c(C(=O)NCCCCCCCCNC(=O)COc5cccc6c5C(=O)N(C5CCC(=O)NC5=O)C6=O)cc34)c2)cc1 (stereo not shown) [Example 388, N-(8-(2-((2-(2,6-dioxopiperidin-3-yl)-1,3-dioxoisoindolin-4-yl)oxy)acetamido)octyl)-4-(5-(4-(4-isopropyl-4H-1,2,4-triazol-3-yl)phenyl)pyridin-3-yl)-1H-pyrrolo[2,3-b]pyridine-2-carboxamide]
< 5000 nM | 100 to 1000 nM | CC(C)n1cnnc1-c1ccc(-c2cncc(-c3ccnc4[nH]c(C(=O)NCCOCCOCCOCCNC(=O)COc5cccc6c5C(=O)N(C5CCC(=O)NC5=O)C6=O)cc34)c2)cc1 (stereo not shown) [Example 389, N-(1-((2-(2,6-dioxopiperidin-3-yl)-1,3-dioxoisoindolin-4-yl)oxy)-2-oxo-6,9,12-trioxa-3-azatetradecan-14-yl)-4-(5-(4-(4-isopropyl-4H-1,2,4-triazol-3-yl)phenyl)pyridin-3-yl)-1H-pyrrolo[2,3-b]pyridine-2-carboxamide]
5 to 100 nM | 10 to 100 nM | Cc1nc(CNC(=O)c2cc3c(-c4cncc(-c5ccc(N6CCCC6=O)cc5)c4)ccnc3[nH]2)oc1C [Example 390]
1000 to 2500 nM | 10 to 100 nM | CC(C)Cn1cnnc1-c1ccc(-c2cc(-c3ccnc4c3cc3n4CCN(CC4CC4)C3=O)cnc2N)cc1 [Example 391, 4-(6-amino-5-(4-(4-isobutyl-4H-1,2,4-triazol-3-yl)phenyl)pyridin-3-yl)-7-(cyclopropylmethyl)-8,9-dihydropyrido[3′,2′:4,5]pyrrolo[1,2-a]pyrazin-6(7H)-one]
100 to 1000 nM | 1 to 10 nM | CC(C)n1cnnc1-c1ccc(-c2cc(-c3ccnc4oc(C(=O)NCC5CC5)cc34)cnc2N)cc1 [Example 392, 4-(6-amino-5-(4-(4-isopropyl-4H-1,2,4-triazol-3-yl)phenyl)pyridin-3-yl)-N-(cyclopropylmethyl)furo[2,3-b]pyridine-2-carboxamide]
1000 to 2500 nM | 100 to 1000 nM | O=C(COc1cccc2c1C(=O)N(C1CCC(=O)NC1=O)C2=O)NCCOCCOCCOCCNC(=O)c1cc2c(-c3cncc(-c4ccc(N5CCCC5=O)cc4)c3)ccnc2[nH]1 (stereo not shown) [Example 393, N-(1-((2-(2,6-dioxopiperidin-3-yl)-1,3-dioxoisoindolin-4-yl)oxy)-2-oxo-6,9,12-trioxa-3-azatetradecan-14-yl)-4-(5-(4-(2-oxopyrrolidin-1-yl)phenyl)pyridin-3-yl)-1H-pyrrolo[2,3-b]pyridine-2-carboxamide]
2500 to 5000 nM | 100 to 1000 nM | CN1CCn2c(cc3c(-c4cncc(-c5ccc(-c6nncn6C6CC(F)(F)C6)cc5)c4)ccnc32)C1=O [Example 394, 4-(5-(4-(4-(3,3-difluorocyclobutyl)-4H-1,2,4-triazol-3-yl)phenyl)pyridin-3-yl)-7-methyl-8,9-dihydropyrido[3′,2′:4,5]pyrrolo[1,2-a]pyrazin-6(7H)-one]
